Results on nine molecules are retold here after patent publication US20250011368A1, “DLL3 TARGETING PEPTIDES AND CONSTRUCTS THEREOF” (MARIANA ONCOLOGY INC., priority 2023, published 2025).

Molecules are shown by their SMILES. Numbered stars: 1 amine (or outer) side, 2 acyl side, 3 side chain; on linkers, the order of the positions; unused ones are H or OH. Bridge positions count the residues as written; N and C are the ends. Square brackets hold non-standard residues; d marks the D form. Side chains are listed from the residue outwards. Peptide text beside a SMILES is read from it. * marks the point of attachment. Ala(piperidin-4-yl) = O=C([C@H](CC1CCN([*:3])CC1)N[*:1])[*:2]; DOTA = O=C(O)CN1CCN(CC(=O)O)CCN(CC(=O)*)CCN(CC(=O)O)CC1; Phe(4-CF3) = N[C@@H](Cc1ccc(C(F)(F)F)cc1)C(=O)O; Trp(5-F) = N[C@@H](Cc1c[nH]c2ccc(F)cc12)C(=O)O; Phe(2-CF3) = N[C@@H](Cc1ccccc1C(F)(F)F)C(=O)O; Trp(7-aza) = N[C@@H](Cc1c[nH]c2ncccc12)C(=O)O; Pro(trans-4-F) = O=C(O)[C@@H]1C[C@@H](F)CN1; Lys(Me3) = C[N+](C)(C)CCCC[C@H](N)C(=O)O; PEG8 = NCCOCCOCCOCCOCCOCCOCCOCCOCCC(=O)O; Phe(4-F) = N[C@@H](Cc1ccc(F)cc1)C(=O)O; 2Nal = N[C@@H](Cc1ccc2ccccc2c1)C(=O)O; Gly(4-THP) = N[C@H](C(=O)O)C1CCOCC1; Cba = N[C@@H](CC1CCC1)C(=O)O; Chg = N[C@H](C(=O)O)C1CCCCC1; Aze = O=C(O)[C@@H]1CCN1

The test concerns the target T1, human DLL3 (Homo sapiens, UniProt Q9NYJ7).
T1 sequence (Q9NYJ7 27-618): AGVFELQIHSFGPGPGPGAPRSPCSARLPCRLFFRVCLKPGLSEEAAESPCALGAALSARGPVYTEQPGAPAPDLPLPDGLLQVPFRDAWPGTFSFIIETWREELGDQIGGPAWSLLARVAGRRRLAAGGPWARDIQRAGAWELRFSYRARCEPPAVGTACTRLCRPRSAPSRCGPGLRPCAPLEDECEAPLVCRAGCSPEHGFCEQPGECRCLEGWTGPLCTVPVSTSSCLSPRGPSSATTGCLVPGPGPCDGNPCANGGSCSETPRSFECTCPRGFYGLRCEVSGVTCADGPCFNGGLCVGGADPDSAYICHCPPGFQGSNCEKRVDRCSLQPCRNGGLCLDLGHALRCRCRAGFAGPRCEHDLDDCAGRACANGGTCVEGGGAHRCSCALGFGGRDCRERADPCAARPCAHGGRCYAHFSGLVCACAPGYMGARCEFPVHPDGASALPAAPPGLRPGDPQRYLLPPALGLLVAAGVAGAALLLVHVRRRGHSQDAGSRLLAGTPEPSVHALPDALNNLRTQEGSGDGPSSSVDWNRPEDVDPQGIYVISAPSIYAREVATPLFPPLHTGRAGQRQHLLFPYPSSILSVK
The experiment in a line: Affinity determination by Surface Plasmon Resonance (SPR). Format: binding. Particulars: 25° C., biotinylated human DLL3 immobilized on streptavidin sensor chip, 1:1 binding model; read-out: SPR KD. The method in brief:
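Biotinylated human DLL3 was captured on a streptavidin chip with a reference surface. Compounds at several concentrations were injected at 100 μL/minute in phosphate buffer (137 mM NaCl, 2.7 mM KCl, 0.05% P20, 2% DMSO). Affinity and kinetics came from 1:1 model fits of the sensorgrams.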
A word on the Kd: it is the equilibrium constant for the complex coming apart. On to `CC[C@H](C)[C@H](NC(=O)[C@@H](NC(=O)[C@H](Cc1c[nH]c2ccccc12)NC(C)=O)[C@@H](C)O)C(=O)N[C@H]1CSSC[C@@H](C(=O)N[C@@H](Cc2c[nH]c3ccccc23)C(=O)N2CCC[C@H]2C(=O)N[C@H](CCCCNC(=O)[C@H]2CCCN2C(=O)CCOCCOCCOCCOCCOCCOCCOCCOCCNC(=O)CN2CCN(CC(=O)O)CCN(CC(=O)O)CCN(CC(=O)O)CC2)C(N)=O)NC(=O)[C@H](CC(=O)O)NC(=O)[C@H](Cc2cnc[nH]2)NC(=O)[C@H](Cc2ccc3ccccc3c2)NC(=O)[C@H](CC(N)=O)NC(=O)[C@H](CC(N)=O)NC1=O` [compound 356, Ac-W-T-I-C(3)-N-N-(2Nal)-H-D-C(3)-W-P-[D-Lys((D-Pro)-PEG8-DOTA)]-NH2] (Ac-WTICNN[2Nal]HDCWP[dK]([dP-PEG8-DOTA])-NH2; disulfide 4-10), for which the Kd is below 1 nM.
Turning to `CC[C@H](C)[C@H](NC(=O)[C@@H](NC(=O)[C@H](Cc1c[nH]c2ccccc12)NC(C)=O)[C@@H](C)O)C(=O)N[C@H]1CSSC[C@@H](C(=O)N[C@@H](Cc2c[nH]c3ccccc23)C(=O)N2CCC[C@H]2C(=O)N[C@H](CCCCNC(=O)CN2CCN(CC(=O)O)CCN(CC(=O)O)CCN(CC(=O)O)CC2)C(N)=O)NC(=O)[C@H](CC(=O)O)NC(=O)[C@H](Cc2cnc[nH]2)NC(=O)[C@H](Cc2c[nH]c3ccccc23)NC(=O)[C@H](CC(N)=O)NC(=O)[C@H](CCC(=O)O)NC1=O` [compound 277, Ac-W-T-I-C(3)-Glu-N-W-H-D-C(3)-W-P-[D-Lys(DOTA)]-NH2] (Ac-WTICENWHDCWP[dK](DOTA)-NH2; disulfide 4-10), the Kd was below 1 nM.
As for `CC(=O)N[C@@H](Cc1c[nH]c2ccccc12)C(=O)N[C@H](C(=O)N[C@H](C(=O)N[C@H]1CSSC[C@@H](C(=O)N[C@@H](Cc2c[nH]c3ccccc23)C(=O)N2CCC[C@H]2C(=O)N[C@H](CCCCNC(=O)CN2CCN(CC(=O)O)CCN(CC(=O)O)CCN(CC(=O)O)CC2)C(N)=O)NC(=O)[C@H](CC(N)=O)NC(=O)[C@H](Cc2cnc[nH]2)NC(=O)[C@H](Cc2ccc3ccccc3c2)NC(=O)[C@H](CC(N)=O)NC(=O)[C@H](CC2CCNCC2)NC1=O)C1CCCCC1)[C@@H](C)O` [compound 283, Ac-W-T-(Chg)-C(3)-[3-(4-piperidinyl)-Ala]-N-(2Nal)-H-(Asn)-C(3)-W-P-[D-Lys(DOTA)]-NH2] (Ac-WT[Chg]C[Ala(piperidin-4-yl)]N[2Nal]HNCWP[dK](DOTA)-NH2; disulfide 4-10), the figure is below 1 nM.
As for `CC(=O)N[C@@H](Cc1c[nH]c2ccc(F)cc12)C(=O)N[C@H](C(=O)N[C@H](C(=O)N[C@H]1CSSC[C@@H](C(=O)N[C@@H](Cc2c[nH]c3ncccc23)C(=O)N2C[C@H](F)C[C@H]2C(=O)N[C@@H](CCCCNC(=O)CN2CCN(CC(=O)O)CCN(CC(=O)O)CCN(CC(=O)O)CC2)C(N)=O)NC(=O)[C@H](CC(=O)O)NC(=O)[C@H](Cc2c[nH]cn2)NC(=O)[C@H](Cc2ccc3ccccc3c2)NC(=O)[C@H](CC(N)=O)NC(=O)[C@H](CC(N)=O)NC1=O)C1CCOCC1)[C@@H](C)O` [compound 243, Ac-(5Fluoro-W)-T-(THPG)-C(3)-N-N-(2Nal)-H-D-C(3)-(7Aza-W)-(trans4Fluoro-P)-[D-Lys(DOTA)]-NH2] (Ac-[Trp(5-F)]T[Gly(4-THP)]CNN[2Nal]HDC[Trp(7-aza)][Pro(trans-4-F)]K(DOTA)-NH2; disulfide 4-10), the figure is below 1 nM.
As to `CC(=O)N[C@@H](Cc1c[nH]c2ccc(F)cc12)C(=O)N[C@H](C(=O)N[C@@H](Cc1ccccc1C(F)(F)F)C(=O)N[C@H]1CSSC[C@@H](C(=O)N[C@@H](Cc2c[nH]c3ncccc23)C(=O)N2C[C@H](F)C[C@H]2C(=O)N[C@H](CCCCNC(=O)CN2CCN(CC(=O)O)CCN(CC(=O)O)CCN(CC(=O)O)CC2)C(N)=O)NC(=O)[C@H](CC(=O)O)NC(=O)[C@H](Cc2cnc[nH]2)NC(=O)[C@H](Cc2ccc(F)cc2)NC(=O)[C@H](CC(N)=O)NC(=O)[C@H](CC(N)=O)NC1=O)[C@@H](C)O` [compound 136, Ac-(5Fluoro-W)-T-(2CF3-F)-C(3)-N-N-(4Fluoro-F)-H-D-C(3)-(7Aza-W)-(trans4Fluoro-P)-[D-Lys(DOTA)]-NH2] (Ac-[Trp(5-F)]T[Phe(2-CF3)]CNN[Phe(4-F)]HDC[Trp(7-aza)][Pro(trans-4-F)][dK](DOTA)-NH2; disulfide 4-10), the Kd was in the range of 1 to 10 nM.
For the molecule `CC[C@H](C)[C@H](NC(=O)[C@@H](NC(=O)[C@H](Cc1c[nH]c2ccccc12)NC(C)=O)[C@@H](C)O)C(=O)N[C@H]1CSSC[C@@H](C(=O)N[C@@H](Cc2c[nH]c3ncccc23)C(=O)N2CCC[C@H]2C(=O)N[C@H](CCCCNC(=O)CN2CCN(CC(=O)O)CCN(CC(=O)O)CCN(CC(=O)O)CC2)C(N)=O)NC(=O)[C@H](CC(=O)O)NC(=O)[C@H](Cc2cnc[nH]2)NC(=O)[C@H](Cc2c[nH]c3ccccc23)NC(=O)[C@H](CC(N)=O)NC(=O)[C@H](CC(N)=O)NC1=O` [compound 87, Ac-W-T-I-C(3)-N-N-W-H-D-C(3)-(7Aza-W)-P-[D-Lys(DOTA)]-NH2] (Ac-WTICNNWHDC[Trp(7-aza)]P[dK](DOTA)-NH2; disulfide 4-10), the Kd is 10 to 100 nM.
As for `CC[C@H](C)[C@H](NC(=O)[C@@H](NC(=O)[C@H](Cc1c[nH]c2ccccc12)NC(C)=O)[C@@H](C)O)C(=O)N[C@H]1CSSC[C@@H](C(=O)N[C@@H](Cc2c[nH]c3ccccc23)C(=O)N2CCC[C@H]2C(=O)N[C@H](CCCCNC(=O)CN2CCN(CC(=O)O)CCN(CC(=O)O)CCN(CC(=O)O)CC2)C(N)=O)NC(=O)[C@H](CC(=O)O)NC(=O)[C@H](CCCC[N+](C)(C)C)NC(=O)[C@H](Cc2ccc3ccccc3c2)NC(=O)[C@H](CC(N)=O)NC(=O)[C@H](CC(N)=O)NC1=O` [compound 238, Ac-W-T-I-C(3)-N-N-(2Nal)-(K(Me)3)-D-C(3)-W-P-[D-Lys(DOTA)]-NH2] (Ac-WTICNN[2Nal][Lys(Me3)]DCWP[dK](DOTA)-NH2; disulfide 4-10), the figure is 1 to 10 nM; as for `CC[C@H](C)[C@H](NC(=O)[C@@H](NC(=O)[C@H](Cc1c[nH]c2ccccc12)NC(C)=O)[C@@H](C)O)C(=O)N[C@H]1CSSC[C@@H](C(=O)N[C@@H](Cc2c[nH]c3ccccc23)C(=O)N2CCC[C@H]2C(=O)N[C@H](CCCCNC(=O)CN2CCN(CC(=O)O)CCN(CC(=O)O)CCN(CC(=O)O)CC2)C(N)=O)NC(=O)[C@H](CC(=O)O)NC(=O)[C@H](Cc2cnc[nH]2)NC(=O)[C@H](Cc2c[nH]c3ccccc23)NC(=O)[C@H](CCC(=O)O)NC(=O)[C@H](CC(N)=O)NC1=O` [compound 279, Ac-W-T-I-C(3)-N-Glu-W-H-D-C(3)-W-P-[D-Lys(DOTA)]-NH2] (Ac-WTICNEWHDCWP[dK](DOTA)-NH2; disulfide 4-10), 1 to 10 nM.
For `CC(=O)N[C@@H](Cc1c[nH]c2ccc(F)cc12)C(=O)N[C@H](C(=O)N[C@@H](CC1CCC1)C(=O)N[C@H]1CSSC[C@@H](C(=O)N[C@@H](Cc2c[nH]c3ncccc23)C(=O)N2CC[C@H]2C(=O)N[C@H](CCCCNC(=O)CN2CCN(CC(=O)O)CCN(CC(=O)O)CCN(CC(=O)O)CC2)C(N)=O)NC(=O)[C@H](CC(=O)O)NC(=O)[C@H](Cc2cnc[nH]2)NC(=O)[C@H](Cc2ccc(C(F)(F)F)cc2)NC(=O)[C@H](CC(N)=O)NC(=O)[C@H](CC(N)=O)NC1=O)[C@@H](C)O` [compound 142, Ac-(5Fluoro-W)-T-(CBA)-C(3)-N-N-(4CF3-F)-H-D-C(3)-(7Aza-W)-(Aze)-[D-Lys(DOTA)]-NH2] (Ac-[Trp(5-F)]T[Cba]CNN[Phe(4-CF3)]HDC[Trp(7-aza)][Aze][dK](DOTA)-NH2; disulfide 4-10) the value was 1 to 10 nM.
